Data on 22 molecules can be found in patent publication US7915448B2, “Substituted sulfonylaminoarylmethyl cyclopropanecarboxamide as VR1 receptor antagonists” (Pfizer Inc., priority 2005, dated 2011).

In general, IC50 refers to the point on the concentration scale where inhibition reaches its midpoint. The low end stands for inhibition by little substance, the high end for a need for much substance. A word on the half-life: it is how long it takes for the measured level to halve. A high value points to slow decline.

In data set [1] the target is T1, human VR1 receptors (Homo sapiens, UniProt Q8NER1).
T1 construct: host or cells: cells highly expressing human VR1; cell type not specified
T1 sequence (Q8NER1 whole entry): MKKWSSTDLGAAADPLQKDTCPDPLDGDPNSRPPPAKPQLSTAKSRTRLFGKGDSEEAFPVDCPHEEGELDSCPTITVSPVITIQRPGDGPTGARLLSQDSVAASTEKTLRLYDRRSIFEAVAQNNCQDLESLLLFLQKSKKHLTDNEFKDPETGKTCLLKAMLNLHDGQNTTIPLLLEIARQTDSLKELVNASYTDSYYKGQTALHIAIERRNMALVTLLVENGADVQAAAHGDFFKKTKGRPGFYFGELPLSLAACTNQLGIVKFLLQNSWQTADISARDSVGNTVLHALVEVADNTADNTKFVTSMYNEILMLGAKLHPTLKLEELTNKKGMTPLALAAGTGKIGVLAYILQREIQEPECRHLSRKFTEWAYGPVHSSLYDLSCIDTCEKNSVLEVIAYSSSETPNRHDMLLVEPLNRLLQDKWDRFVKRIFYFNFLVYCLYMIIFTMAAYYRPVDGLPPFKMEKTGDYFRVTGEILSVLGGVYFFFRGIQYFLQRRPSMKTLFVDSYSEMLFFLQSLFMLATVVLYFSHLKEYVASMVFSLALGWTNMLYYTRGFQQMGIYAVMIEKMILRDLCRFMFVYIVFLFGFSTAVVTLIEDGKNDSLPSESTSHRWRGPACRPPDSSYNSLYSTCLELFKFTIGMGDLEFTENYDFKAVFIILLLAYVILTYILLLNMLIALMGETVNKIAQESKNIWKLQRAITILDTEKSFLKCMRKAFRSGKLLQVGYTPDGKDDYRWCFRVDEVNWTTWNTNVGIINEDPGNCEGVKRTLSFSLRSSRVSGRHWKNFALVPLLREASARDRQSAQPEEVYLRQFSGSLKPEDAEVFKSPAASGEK
Put plainly: Human VR1 antagonist assay (Ca2+ imaging). Type of data set: cell-based. The note with it: cells expressing human VR1, fura-2 Ca2+ imaging, FDSS 6000; capsaicin (300 nM) or acid (pH5.8) stimulation, table does not say which. Summed up: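 Human VR1-expressing cells loaded with 5 μM fura-2/AM for 1 h, resuspended at 3.75×10^5 cells/ml and preincubated 15 min at room temperature in the dark with compound. Stimulation by 300 nM capsaicin in KRH buffer pH 7.3, or by acid (HBSS/MES, final pH 5.8) from HBSS-HEPES pH 7.4; fluorescence (ex 340/380 nm, em 510-520 nm) monitored from 1 min before addition for 5 min.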

The conditions of data set [2]: human, microsomes, pH 7.4.
Protocol: (§1) Test compounds (1 μM) were incubated with 3.3 mM MgCl2 and 0.78 mg/mL HLM (HL101) in 100 mM potassium phosphate buffer (pH 7.4) at 37° C. on the 96-deep well plate. The reaction mixture was split into two groups, a non-P450 and a P450 group. NADPH was only added to the reaction mixture of the P450 group. An aliquot of samples of P450 group was collected at 0, 10, 30, and 60 min time point, where 0 min time point indicated the time when NADPH was added into the reaction mixture of P450 group. An aliquot of samples of non-P450 group was collected at −10 and 65 min time point. Collected aliquots were extracted with acetonitrile solution containing an internal standard. The precipitated protein was spun down in centrifuge (2000 rpm, 15 min). The compound concentration in supernatant was measured by LC/MS/MS system.
(§2) The half-life value was obtained by plotting the natural logarithm of the peak area ratio of compounds/internal standard versus time. The slope of the line of best fit through the points yields the rate of metabolism (k).
A short description of data set [3]: Half-life in Human Liver Microsomes (HLM). The note with it: pH 7.4; for half-life at 1 μM: human, human liver microsomes (HL101). (In general: Liver microsomes are a subcellular fraction often used to study metabolism.)
Protocol: as §1, §2

Like-named read-outs stand apart in the source and are kept apart here.

Turning to `Cc1cc([C@@H](C)NC(=O)C2CC2c2ccc(C(C)(C)C)cc2)ccc1NS(C)(=O)=O` (some centres unmarked) [Example 7, 2-(4-tert-Butylphenyl)-N-((1 FR)-1-{3-methyl-4-[(methylsulfonyl)amino]phenyl}ethyl)cyclopropanecarboxamide], the IC50 in data set [1] was found to be 15 nM. Besides, the “T1/2” value in data set [2] amounted to 33 min.

As to `Cc1cc([C@@H](C)NC(=O)C2CC2c2ccc(C(C)(C)C)nc2N2CCCCC2)ccc1NS(C)(=O)=O` (stereo partly drawn) [Example 49, 2-(6-tert-Butyl-2-piperidin-1-ylpyridin-3-yl)-N-((1R)-1-{3-methyl-4-[(methylsulfonyl)amino]phenyl}ethyl)cyclopropanecarboxamide], in data set [1], the IC50 is 125 nM. Moreover, in data set [3], the half-life at 1 μM was determined as 3 min.

In data set [1], `C[C@@H](NC(=O)C1CC1c1ccc(C(C)(C)C)nc1N1CCCCC1)c1ccc(NS(C)(=O)=O)c(F)c1` (stereo partly drawn) [Example 50, 2-(6-tert-Butyl-2-piperidin-1-ylpyridin-3-yl)-N-((1R)-1-{3-fluoro-4-[(methylsulfonyl)amino]phenyl}ethyl)cyclopropanecarboxamide] displayed an IC50 of 239 nM. The molecule also gave a half-life at 1 μM in data set [3] of 4 min.

In turn, `Cc1cc([C@@H](C)NC(=O)C2CC2c2ccc(C(C)(C)C)nc2N2CCCC2)ccc1NS(C)(=O)=O` (stereo partly drawn) [Example 51, 2-(6-tert-Butyl-2-pyrrolidin-1-ylpyridin-3-yl)-N-((1R)-1-{3-methyl-4-[(methylsulfonyl)amino]phenyl}ethyl)cyclopropanecarboxamide] returned an IC50 in data set [1] of 15.6 nM. In data set [3], this molecule had a half-life at 1 μM of 5 min.

In data set [1], `Cc1cc([C@@H](C)NC(=O)C2CC2c2ccc(C(C)(C)C)nc2)ccc1NS(C)(=O)=O` (stereo partly drawn) [Example 53, 2-[6-tert-Butylpyridin-3-yl]-N-((1R)-1-{3-methyl-4-[(methylsulfonyl)amino]phenyl}ethyl)cyclopropanecarboxamide] displayed an IC50 of 125 nM. The half-life at 1 μM in data set [3] turned out to be 44 min.

With `Cc1nc([C@@H](C)NC(=O)C2CC2(C)c2ccc(C(F)(F)F)cc2)ccc1NS(C)(=O)=O` (some centres unmarked) [Example 54], the IC50 in data set [1] turned out to be 234 nM. Moreover, in data set [3], the half-life at 1 μM was found to be 96 min.

Turning to `Cc1cc([C@@H](C)NC(=O)C2CC2(CO)c2ccc(C(C)(C)C)cc2)ccc1NS(C)(=O)=O` (stereo partly drawn) [Example 59, 2-[4-tert-Butylphenyl]-2-(hydroxymethyl)-N-((1R)-1-{3-methyl-4-[(methylsulfonyl)amino]phenyl}ethyl)cyclopropanecarboxamide], in data set [1], the IC50 was 263 nM. The molecule further gave a half-life at 1 μM in data set [3] of 22 min.

The molecule `C[C@@H](NC(=O)[C@H]1C[C@]1(C)c1ccc(C(F)(F)F)cc1)c1cc(F)c(NS(C)(=O)=O)cc1F` [Example 60, (1S,2S)-N-((1R)-1-{2,5-Difluoro-4-[(methylsulfonyl)amino]phenyl}ethyl)-2-methyl-2-[4-(trifluoromethyl)phenyl]cyclopropanecarboxamide] registered an IC50 in data set [1] of 25.1 nM. In data set [3], this molecule returned a half-life at 1 μM of more than 120 min.

`C[C@@H](NC(=O)[C@H]1C[C@]1(C)c1ccc(C(F)(F)F)cc1)c1cc(F)c(NS(C)(=O)=O)c(F)c1` [Example 61, (1S,2S)-N-((1R)-1-{3,5-Difluoro-4-[(methylsulfonyl)amino]phenyl}ethyl)-2-methyl-2-[4-(trifluoromethyl)phenyl]cyclopropanecarboxamide]: the IC50 in data set [1] is 3.17 nM. In data set [3], this molecule gave a half-life at 1 μM of more than 120 min.

In data set [1], `COC1(c2ccc(C(F)(F)F)cc2)CC1C(=O)N[C@H](C)c1ccc(NS(C)(=O)=O)c(C)c1` (stereo partly drawn) [Example 63, N-((1R)-1-{3-Methyl-4-[(methylsulfonyl)amino]phenyl}ethyl)-2-(methyloxy)-2-[4-(trifluoromethyl)phenyl]cyclopropanecarboxamide] displayed an IC50 of 6.66 nM. The molecule further showed a half-life at 1 μM in data set [3] of 35.6 min.

Take `COC1(c2ccc(C(C)(C)C)cc2)CC1C(=O)N[C@H](C)c1ccc(NS(C)(=O)=O)c(C)c1` (stereo partly drawn) [Example 64, 2-[4-tert-Butylphenyl]-N-((1R)-1-{3-methyl-4-[(methylsulfonyl)amino]phenyl}ethyl)-2-(methyloxy)cyclopropanecarboxamide]: the midpoint of inhibition in data set [1], the IC50, lay at 4.62 nM. Besides, in data set [3], the half-life at 1 μM was 14 min.

As to `Cc1cc([C@@H](C)NC(=O)C2CC2(C)c2ccc(C(F)(F)F)c(F)c2)ccc1NS(C)(=O)=O` (stereo partly drawn) [Example 66, 2-[3-Fluoro-4-(trifluoromethyl)phenyl]-2-methyl-N-((1R)-1-{3-methyl-4-[(methylsulfonyl)amino]phenyl}ethyl)cyclopropanecarboxamide], in data set [1], the IC50 was determined as 0.421 nM. The half-life at 1 μM in data set [3] amounted to 34 min.

For `C[C@@H](NC(=O)C1CC1(C)c1ccc(C(F)(F)F)c(F)c1)c1ccc(NS(C)(=O)=O)c(F)c1` (stereo partly drawn) [Example 67, N-((1R)-1-{3-Fluoro-4-[(methylsulfonyl)amino]phenyl}ethyl)-2-[3-fluoro-4-(trifluoromethyl)phenyl]-2-methylcyclopropanecarboxamide], the IC50 in data set [1] was 5.64 nM. In data set [3], this molecule showed a half-life at 1 μM of 95 min.

In turn, `Cc1cc([C@@H](C)NC(=O)C2CC2c2ccc(C(C)(C)C)cc2CO)ccc1NS(C)(=O)=O` (stereo partly drawn) [Example 68, 2-[4-tert-Butyl-2-(hydroxymethyl)phenyl]-N-((1R)-1-{3-methyl-4-[(methylsulfonyl)amino]phenyl}ethyl)cyclopropanecarboxamide] came in with an IC50 in data set [1] of 62 nM. This molecule also returned a half-life at 1 μM in data set [3] of 18 min.

With `C[C@@H](NC(=O)C1CC1(C)c1ccc(S(=O)(=O)C(F)(F)F)cc1)c1ccc(NS(C)(=O)=O)c(CO)c1` (stereo partly drawn) [Example 69, N-((1R)-1-{3-(Hydroxymethyl)-4-[(methylsulfonyl)amino]phenyl}ethyl)-2-methyl-2-{4-[(trifluoromethyl)sulfonyl]phenyl}cyclopropanecarboxamide], the IC50 in data set [1] worked out at 212 nM. This molecule also had a half-life at 1 μM in data set [3] of 30 min.

For the molecule `Cc1cc([C@@H](C)NC(=O)[C@H]2C[C@]2(C)c2ccc(C(F)(F)F)cc2)ccc1NS(C)(=O)=O` [Example 70, (1S,2S)-2-Methyl-N-((1R)-1-{3-methyl-4-[(methylsulfonyl)amino]phenyl}ethyl)-2-[4-(trifluoromethyl)phenyl]cyclopropanecarboxamide], the IC50 in data set [1] came out at 0.83 nM. The “T1/2” value in data set [3] (1 μM compound, 0.78 mg/mL HLM, 37° C., NADPH) was 38 min.

`C[C@@H](NC(=O)C1CC1(C)c1ccc(C(F)(F)F)c(F)c1)c1cc(F)c(NS(C)(=O)=O)c(F)c1` (stereo partly drawn) [Example 73, N-((1R)-1-{3,5-Difluoro-4-[(methylsulfonyl)amino]phenyl}ethyl)-2-[3-fluoro-4-(trifluoromethyl)phenyl]-2-methylcyclooropanecarboxamide] returned an IC50 in data set [1] of 0.76 nM. In data set [2], the “T1/2” value was more than 120 min.

Turning to `C[C@@H](NC(=O)[C@@H]1C[C@@]1(C)c1ccc(C(F)(F)F)c(F)c1)c1cc(F)c(NS(C)(=O)=O)c(F)c1` [Example 74, N-((1R)-1-{3,5-Difluoro-4-[(methylsulfonyl)amino]phenyl}ethyl)-2-[3-fluoro-4-(trifluoromethyl)phenyl]-2-methylcyclopropanecarboxamide], the half-inhibitory concentration (IC50) in data set [1] stood at 21 nM. The half-life at 1 μM in data set [3] is more than 120 min.

In data set [1], `CC[C@@H](NC(=O)[C@H]1C[C@@H]1c1cc(F)c(C(C)(C)C)c(F)c1)c1ccc(NS(C)(=O)=O)c(C)c1` [Example 76, 2-(4-tert-Butyl-3,5-difluorophenyl)-N-((1R)-1-{3-methyl-4-[(methylsulfonyl)amino]phenyl}propyl)cyclopropanecarboxamide] had an IC50 of 26.3 nM. Also, the half-life at 1 μM in data set [3] was 33 min.

In turn, `Cc1cc([C@@H](C)NC(=O)[C@H]2C[C@@H]2c2ccc(C(F)(F)F)nc2N(C)C)c(F)cc1NS(C)(=O)=O` [Example 79, 2-[2-(Dimethylamino)-6-(trifluoromethyl)pyridin-3-yl]-N-((1R)-1-{2-fluoro-5-methyl-4-[(methylsulfonyl)amino]phenyl}ethyl)cyclopropanecarboxamide] registered an IC50 in data set [1] of 20.5 nM. Also, in data set [3], the half-life at 1 μM came out at 22 min.

For `Cc1cc([C@@H](C)NC(=O)[C@H]2C[C@]2(C)c2ccc(C(F)(F)F)nc2N2CCOCC2)ccc1NS(C)(=O)=O` [Example 84, 2-Methyl-N-((1R)-1-{3-methyl-4-[(methylsulfonyl)amino]phenyl}ethyl)-2-[2-morpholin-4-yl-6-(trifluoromethyl)pyridin-3-yl]cyclopropanecarboxamide], the midpoint of inhibition in data set [1], the IC50, lay at 24.5 nM. This molecule also registered a half-life at 1 μM in data set [3] of 3 min.

With “N-((1R)-1-{3,5-Difluoro-4-[(methylsulfonyl)amino]phenyl}ethyl)-2-[3,5-difluoro-4-(2,2,2-trifluoro-1-dimethylethyl)phenyl]-2-methylcyclopropanecarboxamide [Example 80]”, the IC50 in data set [1] amounted to 3.01 nM. Besides, the “T1/2” value in data set [2] worked out at 117 min.
